Assay results: the supplement of paper PMC10307832

Legend:
Test in all cases: relative viability (nuclei count vs DMSO), 5 days (fraction); higher = more cells survive
Trametinib + Decitabine = compound: CC(=O)Nc1cccc(-n2c(=O)n(C3CC3)c(=O)c3c(Nc4ccc(I)cc4F)n(C)c(=O)c(C)c32)c1 [Trametinib] + Nc1ncn([C@H]2C[C@H](O)[C@@H](CO)O2)c(=O)n1 [Decitabine] (partner 2 µM)
Outline: (§1)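 Relative viability is defined as nuclei in treated wells over nuclei in vehicle wells. Duplicate plates were run and medians reported. Lung cancer cell lines in 1536-well plates were dosed by pin tool one day after seeding, with one drug or with a fixed anchor-drug dose plus five library-drug doses (not always all listed) in √10 steps, and nuclei were counted after 5 days.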

[1] = compound: CN1C=C(C2=CC=CC=C21)/C=C\3/C4=C(C=CC=N4)NC3=O + Nc1ncn([C@H]2C[C@H](O)[C@@H](CO)O2)c(=O)n1 [Decitabine] (partner 2 µM)
Outline: as §1

[2] = compound: CN1C=C(C2=CC=CC=C21)/C=C\3/C4=C(C=CC=N4)NC3=O + CC(=O)Nc1cccc(-n2c(=O)n(C3CC3)c(=O)c3c(Nc4ccc(I)cc4F)n(C)c(=O)c(C)c32)c1 [Trametinib] (partner 0.02 µM)
Outline: as §1

Trametinib + Luminespib = compound: CC(=O)Nc1cccc(-n2c(=O)n(C3CC3)c(=O)c3c(Nc4ccc(I)cc4F)n(C)c(=O)c(C)c32)c1 [Trametinib] + CCNC(=O)c1noc(-c2cc(C(C)C)c(O)cc2O)c1-c1ccc(CN2CCOCC2)cc1 [Luminespib] (partner 0.01 µM)
Outline: as §1

Row | Cell Line | relative viability (Trametinib + Decitabine; first compound 0.0025 µM) | relative viability (Trametinib + Decitabine; first compound 0.007906 µM) | relative viability (Trametinib + Decitabine; first compound 0.025 µM) | relative viability (Trametinib + Decitabine; first compound 0.07906 µM) | relative viability (Trametinib + Decitabine; first compound 0.25 µM) | relative viability ([1]; first compound 0.02 µM) | relative viability ([1]; first compound 0.06325 µM) | relative viability ([1]; first compound 0.6325 µM) | relative viability ([1]; first compound 2 µM) | relative viability ([2]; first compound 0.02 µM) | relative viability ([2]; first compound 0.06325 µM) | relative viability ([2]; first compound 0.6325 µM) | relative viability ([2]; first compound 2 µM) | relative viability (Trametinib + Luminespib; first compound 0.0025 µM) | relative viability (Trametinib + Luminespib; first compound 0.007906 µM) | relative viability (Trametinib + Luminespib; first compound 0.025 µM) | relative viability (Trametinib + Luminespib; first compound 0.07906 µM) | relative viability (Trametinib + Luminespib; first compound 0.25 µM) | relative viability ([1]; first compound 0.2 µM) | relative viability ([2]; first compound 0.2 µM)
1 | HOP-62 | 0.199 | 0.229 | 0.252 | 0.235 | 0.227 | 0.184 | 0.206 | 0.188 | 0.241 | 0.424 | 0.415 | 0.354 | 0.325 | 0.933 | 0.754 | 0.533 | 0.361 | 0.173 | – | –
2 | LC-2-ad | 0.803 | 0.683 | 0.782 | 0.689 | 0.7 | 0.772 | 0.826 | 0.861 | 0.817 | 0.98 | 0.865 | 0.953 | 0.87 | 0.975 | 0.951 | 1 | 0.71 | 0.447 | 0.783 | 0.967
3 | SW 900 | 0.396 | 0.335 | 0.388 | 0.491 | 0.39 | 0.366 | – | 0.433 | 0.483 | 0.763 | – | 0.676 | 0.799 | 0.189 | 0.167 | 0.15 | 0.169 | 0.17 | – | –
4 | NCI-H322M | 0.691 | 0.681 | 0.631 | 0.585 | 0.566 | 0.683 | 0.708 | 0.648 | 0.686 | 0.476 | 0.503 | 0.468 | 0.553 | 0.749 | 0.634 | 0.471 | 0.473 | 0.404 | 0.649 | 0.51
5 | SK-LU-1 | 0.585 | 0.632 | 0.473 | 0.431 | 0.455 | 0.484 | 0.499 | 0.617 | 0.6 | 0.414 | 0.475 | 0.416 | 0.533 | 0.216 | 0.187 | 0.176 | 0.17 | 0.159 | 0.578 | 0.475
6 | NCI-H1734 | 0.508 | 0.438 | – | 0.426 | 0.453 | 0.482 | 0.535 | 0.515 | 0.499 | 0.603 | 0.619 | 0.676 | 0.699 | 0.208 | 0.169 | 0.173 | 0.149 | 0.15 | – | –
7 | HCC-44 | 0.894 | 0.924 | 1.05 | 0.943 | 0.848 | 0.877 | 0.938 | 0.962 | 0.838 | 1.08 | 1.12 | 1.04 | 0.884 | 1.03 | 0.907 | 0.931 | 0.553 | 0.193 | 0.95 | 0.968
8 | NCI-H2170 | 0.491 | 0.451 | – | 0.435 | 0.425 | 0.481 | 0.487 | 0.447 | 0.411 | 0.915 | 0.949 | 0.954 | 0.875 | 0.58 | 0.749 | 0.399 | 0.559 | 0.431 | 0.458 | 0.917
9 | NCI-H1395 | 0.705 | 0.597 | 0.736 | 0.693 | 0.555 | 0.642 | 0.702 | 0.699 | 0.688 | 0.946 | 0.976 | 0.98 | 1.07 | 0.616 | 0.703 | 0.691 | 0.775 | 0.403 | 0.686 | 1.01
10 | NCI-H1355 | 0.346 | 0.353 | 0.309 | 0.347 | 0.34 | 0.342 | 0.375 | 0.317 | 0.324 | 0.336 | 0.361 | 0.274 | 0.3 | 0.486 | 0.605 | 0.323 | 0.35 | 0.3 | 0.374 | 0.423
11 | NCI-H1650 | 0.39 | 0.467 | 0.369 | 0.399 | 0.206 | 0.419 | 0.427 | 0.385 | 0.45 | 0.559 | 0.535 | 0.582 | 0.53 | 0.209 | 0.2 | 0.176 | 0.174 | 0.211 | 0.378 | 0.559
12 | NCI-H1666 | 0.742 | 0.684 | 0.622 | 0.602 | 0.5 | 0.7 | 0.701 | 0.764 | 0.658 | 0.987 | 0.832 | 0.857 | 0.925 | 0.95 | 0.912 | 0.717 | 0.72 | 0.573 | 0.591 | 0.901
13 | HCC-78 | 0.81 | 0.662 | 0.621 | 0.683 | 0.66 | 0.557 | 0.588 | 0.614 | 0.65 | 0.522 | 0.675 | 0.553 | 0.694 | – | – | – | – | – | 0.652 | 0.706
14 | H3255 | 0.552 | 0.572 | 0.487 | 0.518 | 0.378 | 0.796 | – | 0.563 | 0.491 | 0.726 | – | 0.775 | 0.668 | 1.07 | 0.928 | 0.581 | 0.601 | 0.236 | 0.57 | 0.57
15 | NCI-H23 | 0.291 | 0.297 | 0.281 | 0.269 | 0.258 | 0.321 | 0.295 | 0.336 | 0.347 | 0.346 | 0.332 | 0.287 | 0.443 | 0.234 | 0.185 | 0.17 | 0.213 | 0.221 | 0.306 | 0.301
16 | NCI-H1944 | 0.446 | 0.379 | 0.403 | 0.386 | 0.294 | 0.423 | 0.419 | 0.415 | 0.416 | 0.359 | 0.359 | 0.405 | 0.444 | 0.624 | 0.489 | 0.429 | 0.377 | 0.22 | – | –
17 | NCI-H1651 | 0.559 | 0.689 | 0.48 | 0.422 | 0.333 | 0.649 | 0.613 | 0.643 | 0.578 | 0.818 | 0.833 | 0.837 | 0.868 | 0.866 | 0.736 | 0.749 | 0.791 | 0.654 | 0.5 | 0.861
